Results on 17 compounds are retold here after US11866430B2, “Naphthyridinone compounds useful as T cell activators” (priority 2018, dated 2024).

A word on the IC50: it is the midpoint of a concentration-inhibition curve.

The target of experiment [1] is T1, human DGKζ (Homo sapiens (Human), UniProt Q13574). Nature of the experiment: DGKζ LIPGLO assay (extruded liposome substrate). It is filed as biochemical. In a few lines:
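Sf9-derived DGKζ was premixed 10 min with PC/DAG/PS liposomes (100 nm extruded) in MOPS pH 7.5 buffer containing NaCl, MgCl2, CaCl2 and DTT.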

Experiment [2] relates to pre-activated CD4 T cells and Raji cells. Nature of the experiment: Raji CD4 T Cell IL2 Assay. Type of experiment: cell-based.
Experiment [3] deals with T2, human DGKα (Homo sapiens (Human), UniProt P23743). As to the kind of experiment: biochemical. Particulars: detergent/lipid micelle substrate; read-out: DGKα IC50. An outline of the steps: (§1)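 Full-length human DGKα or DGKζ (C-terminal His tag, Sf9-expressed; 20 nM 4× stock) was preincubated 10 min at room temperature with PS/DAG octyl glucoside micelles in MOPS pH 7.5 buffer with MgCl2, CaCl2 and DTT. It was then started with ATP (300 uM addition) and run for 1 hr, with ADP-Glo luminescence read-out.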
T2 sequence (P23743 other isoform, or with tags, fused parts or gaps): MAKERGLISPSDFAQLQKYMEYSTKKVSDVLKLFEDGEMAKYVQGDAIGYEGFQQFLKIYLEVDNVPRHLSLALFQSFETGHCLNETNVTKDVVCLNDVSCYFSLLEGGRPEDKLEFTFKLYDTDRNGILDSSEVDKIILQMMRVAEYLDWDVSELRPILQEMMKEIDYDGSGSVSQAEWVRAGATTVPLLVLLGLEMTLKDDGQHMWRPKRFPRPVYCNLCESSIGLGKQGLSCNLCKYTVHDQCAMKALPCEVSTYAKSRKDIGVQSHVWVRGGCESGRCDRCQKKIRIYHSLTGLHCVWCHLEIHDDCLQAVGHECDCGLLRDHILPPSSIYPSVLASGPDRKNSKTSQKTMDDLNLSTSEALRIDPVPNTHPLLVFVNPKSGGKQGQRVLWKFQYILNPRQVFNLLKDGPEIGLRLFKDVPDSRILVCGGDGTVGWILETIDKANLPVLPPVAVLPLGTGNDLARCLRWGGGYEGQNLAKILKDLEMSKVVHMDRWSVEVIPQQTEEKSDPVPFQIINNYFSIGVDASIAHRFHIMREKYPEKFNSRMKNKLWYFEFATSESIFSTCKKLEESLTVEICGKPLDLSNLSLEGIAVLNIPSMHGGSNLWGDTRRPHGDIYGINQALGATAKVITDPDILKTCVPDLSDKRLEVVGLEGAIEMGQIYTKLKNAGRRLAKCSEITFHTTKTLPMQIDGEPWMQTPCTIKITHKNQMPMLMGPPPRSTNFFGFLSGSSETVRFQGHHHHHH

For experiment [4], the target named is T1, human DGKζ. As to the kind of experiment: DGKζ assay (detergent/lipid micelle substrate). Type of experiment: biochemical. In a few lines:
as §1

Experiment [5] has as its target T2, human DGKα. As to the kind of experiment: DGKα LIPGLO assay (extruded liposome substrate). It is filed as biochemical. In a few lines: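 Human full-length DGKα, His-tagged and produced in Sf9 cells, assayed at 20 nM (4× stock) on extruded liposomes of PS, 0.25 mM DAG and 2.75 mM PC, preincubated 10 min. Reaction started with 300 μM ATP (stock) and ran 1 h in MOPS pH 7.5/MgCl2/CaCl2/DTT buffer.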

Where [6] appears, read: extruded liposome substrate, read-out: DGKζ LIPGLO IC50.
The mark [7] stands for this setting: detergent/lipid micelle substrate, read-out: DGKζ IC50.
The mark [8] stands for this setting: DGKζ LIPGLO IC50, extruded liposome substrate.

Read-outs that look alike come from different tables or passages of the source.

T1 sequence (Q13574 other isoform, or with tags, fused parts or gaps): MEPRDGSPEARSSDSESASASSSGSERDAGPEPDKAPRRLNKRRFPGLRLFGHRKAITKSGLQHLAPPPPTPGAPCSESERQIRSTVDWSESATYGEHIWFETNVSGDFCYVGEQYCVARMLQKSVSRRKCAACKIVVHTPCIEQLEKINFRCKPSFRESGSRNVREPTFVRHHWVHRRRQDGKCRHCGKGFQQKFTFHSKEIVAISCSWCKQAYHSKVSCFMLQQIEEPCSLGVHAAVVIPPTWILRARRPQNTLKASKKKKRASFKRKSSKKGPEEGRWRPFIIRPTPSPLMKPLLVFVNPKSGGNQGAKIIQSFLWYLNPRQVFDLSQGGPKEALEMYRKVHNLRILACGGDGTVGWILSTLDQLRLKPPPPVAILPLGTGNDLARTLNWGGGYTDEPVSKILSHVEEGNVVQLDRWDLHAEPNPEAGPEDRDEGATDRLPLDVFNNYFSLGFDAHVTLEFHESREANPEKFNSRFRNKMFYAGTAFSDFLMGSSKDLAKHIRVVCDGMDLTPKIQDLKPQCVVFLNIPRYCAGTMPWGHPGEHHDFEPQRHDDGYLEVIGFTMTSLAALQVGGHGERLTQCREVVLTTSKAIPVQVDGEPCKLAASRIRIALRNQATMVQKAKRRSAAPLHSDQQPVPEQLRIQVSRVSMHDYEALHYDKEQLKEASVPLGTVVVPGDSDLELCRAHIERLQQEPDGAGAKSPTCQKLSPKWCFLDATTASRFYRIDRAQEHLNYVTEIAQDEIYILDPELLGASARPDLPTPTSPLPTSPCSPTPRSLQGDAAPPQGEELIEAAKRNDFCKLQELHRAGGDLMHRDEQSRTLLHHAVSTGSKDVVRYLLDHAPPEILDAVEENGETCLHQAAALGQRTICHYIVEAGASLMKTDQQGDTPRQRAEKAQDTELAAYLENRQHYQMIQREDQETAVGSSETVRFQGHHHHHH

As for `Cc1cccc(OCc2cncc(C#N)c2)c1C(c1ccc(F)cc1)N1CCN(c2c([N+](=O)[O-])c(=O)n(C)c3ccc(Br)nc23)CC1` (single isomer, unassigned) [Example 90, 5-((2-((4-(6-bromo-1-methyl-3-nitro-2-oxo-1,2-dihydro-1,5-naphthyridin-4-yl)piperazin-1-yl)(4-fluorophenyl)methyl)-3-methylphenoxy)methyl)nicotinonitrile], the IC50 in experiment [1] (setting [6]) is 15 µM; in experiment [2] it was 0.63 µM; in experiment [3], 82 µM; in experiment [4] (setting [7]), 190 µM; in experiment [5], > 240 µM.
The like results for `Cn1c(=O)c([N+](=O)[O-])c(N2CCN(C(c3ccc(F)cc3)c3ccccc3O)CC2)c2nc(C#N)ccc21` (single isomer, unassigned) [Example 99, 8-(4-((4-fluorophenyl)(2-hydroxyphenyl)methyl)piperazin-1-yl)-5-methyl-7-nitro-6-oxo-5,6-dihydro-1,5-naphthyridine-2-carbonitrile] were, in that order, 0.04 µM, 0.0094 µM, 0.41 µM, 0.67 µM and 0.72 µM.
Take `COc1cc(F)ccc1C(c1ccc(F)cc1)N1CCN(c2c([N+](=O)[O-])c(=O)n(C)c3ccc(C#N)nc23)CC1` (single isomer, unassigned) [Example 125, 8-(4-((4-fluoro-2-methoxyphenyl)(4-fluorophenyl)methyl)piperazin-1-yl)-5-methyl-7-nitro-6-oxo-5,6-dihydro-1,5-naphthyridine-2-carbonitrile]: the IC50 in experiment [1] (setting [8]) is 2.3 µM; in experiment [2] (Homo sapiens, Raji), 0.023 µM; in experiment [3] it was 4.3 µM; in experiment [4] (DGKζ IC50, detergent/lipid micelle substrate), 7.9 µM; in experiment [5] it was 11 µM.
Regarding `C#CCn1c(=O)c([N+](=O)[O-])c(N2CCN(C(c3ccc(F)cc3)c3ccc(F)cc3OC)CC2)c2nc(C#N)ccc21` (single isomer, unassigned) [Example 127, 8-(4-((4-fluoro-2-methoxyphenyl)(4-fluorophenyl)methyl)piperazin-1-yl)-7-nitro-6-oxo-5-(prop-2-yn-1-yl)-5,6-dihydro-1,5-naphthyridine-2-carbonitrile], the IC50 turned out to be 0.03 µM in experiment [1] (setting [6]); 0.0064 µM in experiment [2]; 4.2 µM in experiment [3]; 0.25 µM in experiment [4] (setting [7]); 2.9 µM in experiment [5].
Taken in the same sequence, the figures for `C#CCn1c(=O)c([N+](=O)[O-])c(N2CCN(C(c3ccc(F)cc3)c3ccc(F)cc3OC)CC2)c2nc(C#N)ccc21` (single isomer, unassigned) [Example 128, 8-(4-((4-fluoro-2-methoxyphenyl)(4-fluorophenyl)methyl)piperazin-1-yl)-7-nitro-6-oxo-5-(prop-2-yn-1-yl)-5,6-dihydro-1,5-naphthyridine-2-carbonitrile] were 0.048 µM, 0.1 µM, 21 µM, 1.5 µM and 18 µM.
For `C#CCn1c(=O)c([N+](=O)[O-])c(N2CCN(C(CC)c3ccc(F)cc3)CC2)c2nc(C#N)ccc21` (single isomer, unassigned) [Example 140, 8-{4-[1-(4-fluorophenyl)propyl]piperazin-1-yl}-7-nitro-6-oxo-5-(prop-2-yn-1-yl)-5,6-dihydro-1,5-naphthyridine-2-carbonitrile], the IC50 in experiment [1] (setting [6]) was 0.13 µM; in experiment [2] (Homo sapiens, Raji) it was 0.006 µM; in experiment [3], 0.64 µM; in experiment [4] (setting [7]) it was 0.6 µM; in experiment [5] it was 2.7 µM.
Consider `CC(c1ccc(F)cc1)N1CCN(c2c(C#N)c(=O)n(CC3CC3)c3ccc(Br)nc23)CC1` (single isomer, unassigned) [Example 164, 6-bromo-1-(cyclopropylmethyl)-4-(4-(1-(4-fluorophenyl)ethyl)piperazin-1-yl)-2-oxo-1,2-dihydro-1,5-naphthyridine-3-carbonitrile], for which the IC50 was 59 µM in experiment [1] (setting [8]); 2.6 µM in experiment [2]; > 240 µM in experiment [3]; > 240 µM in experiment [4] (read-out: DGKζ IC50, detergent/lipid micelle substrate); 81 µM in experiment [5].
Consider `CC(C)C(c1ccc(F)cc1)N1CCN(c2c(C#N)c(=O)n(C)c3ccc(Cl)nc23)CC1` (single isomer, unassigned) [Example 316, 6-chloro-4-{4-[1-(4-fluorophenyl)-2-methylpropyl]piperazin-1-yl}-methyl-2-oxo-1,2-dihydro-1,5-naphthyridine-3-carbonitrile], for which the IC50 in experiment [1] (setting [6]) was > 240 µM; in experiment [2] it was 0.41 µM; in experiment [3] it was 0.4 µM; in experiment [4] (setting [7]) it was > 240 µM; in experiment [5], 0.25 µM.
Regarding `Cn1c(=O)c([N+](=O)[O-])c(N2CCN(C(c3ccc(F)cc3)c3ccc(F)cc3)CC2)c2ncccc21` [Example 3, 4-(4-(bis(4-fluorophenyl)methyl)piperazin-1-yl)-1-methyl-3-nitro-1,5-naphthyridin-2(1H)-one], the IC50 is 2.3 µM in experiment [1] (setting [6]); 0.31 µM in experiment [2] (Homo sapiens, Raji); 2.1 µM in experiment [3]; > 240 µM in experiment [4] (setting [7]); 3.8 µM in experiment [5].
Taken in the same sequence, the figures for `Cn1c(=O)c(C#N)c(N2CCN(C(c3ccc(F)cc3)C3CC3)CC2)c2nc(Br)ccc21` (stereo not shown) [Example 35, 6-bromo-4-{4-[cyclopropyl(4-fluorophenyl)methyl]piperazin-1-yl}-1-methyl-2-oxo-1,2-dihydro-1,5-naphthyridine-3-carbonitrile] were 81 µM, 0.21 µM, 0.14 µM, > 240 µM and 0.99 µM.
The like results for `CCn1ccc2c(CN3CCN(c4c([N+](=O)[O-])c(=O)n(C)c5ccc(Br)nc45)CC3)cccc21` [Example 54, 6-bromo-4-(4-((1-ethyl-H-indol-4-yl)methyl)piperazin-1-yl)-1-methyl-3-nitro-1,5-naphthyridin-2(1H)-one] were, in that order, 1.3 µM, 0.063 µM, 0.82 µM, 7.3 µM and 3.1 µM.
In the case of `C#CCn1c(=O)c(C#N)c(N2CCN(Cc3ccccc3O)CC2)c2nc(Br)ccc21` [Example 65, 6-bromo-4-(4-(2-hydroxybenzyl)piperazin-1-yl)-2-oxo-1-(prop-2-yn-1-yl)-1,2-dihydro-1,5-naphthyridine-3-carbonitrile], the IC50 in experiment [1] (setting [6]) was 3.7 µM; in experiment [2] (Homo sapiens, Raji) it was 0.0055 µM; in experiment [3], 0.29 µM; in experiment [4] (setting [7]), 20 µM; in experiment [5] it was 0.51 µM.
Taken in the same sequence, the figures for `C#CCn1c(=O)c(C#N)c(N2CCN(Cc3ccc(C)cc3O)CC2)c2nc(Br)ccc21` [Example 66, 6-bromo-4-(4-(2-hydroxy-4-methylbenzyl)piperazin-1-yl)-2-oxo-1-(prop-2-yn-1-yl)-1,2-dihydro-1,5-naphthyridine-3-carbonitrile] were 1.7 µM, 0.048 µM, 0.084 µM, 13 µM and 0.23 µM.
Take `C#CCn1c(=O)c(C#N)c(N2CCN(Cc3ccc(F)cc3O)CC2)c2nc(Br)ccc21` [Example 67, 6-bromo-4-(4-(4-fluoro-2-hydroxybenzyl)piperazin-1-yl)-2-oxo-1-(prop-2-yn-1-vi)-1,2-dihydro-1,5-naphthyridine-3-carbonitrile]: the IC50 came out at 12 µM in experiment [1] (setting [6]); 0.0066 µM in experiment [2] (Homo sapiens, Raji); 0.13 µM in experiment [3]; 13 µM in experiment [4] (setting [7]); 4.8 µM in experiment [5].
The like results for `C#CCn1c(=O)c([N+](=O)[O-])c(N2CCN(C(c3ccc(F)cc3)c3ccc(F)cc3)CC2)c2nc(C#N)ccc21` [Example 118, 8-(4-(bis(4-fluorophenyl)methyl)piperazin-1-yl)-7-nitro-6-oxo-5-(prop-2-yn-1-yl)-5,6-dihydro-1,5-naphthyridine-2-carbonitrile] were, in that order, 0.061 µM, 0.018 µM, 4.2 µM, 0.23 µM and 1.3 µM.
The like results for `CC(c1ccc(F)cc1)N1CCN(c2c([N+](=O)[O-])c(=O)n(CC#N)c3ccc(C#N)nc23)CC1` (stereo not shown) [Example 151, 5-(cyanomethyl)-8-(4-(1-(4-fluorophenyl)ethyl)piperazin-1-yl)-7-nitro-6-oxo-5,6-dihydro-1,5-naphthyridine-2-carbonitrile] were, in that order, 3.1 µM, 0.88 µM, 38 µM, 27 µM and 7.3 µM.
Taken in the same sequence, the figures for `CC(c1ccc(F)cc1)N1CCN(c2c(C#N)c(=O)n(CC#N)c3ccc(Br)nc23)CC1` (stereo not shown) [Example 154, 6-bromo-1-(cyanomethyl)-4-(4-(1-(4-fluorophenyl)ethyl)piperazin-1-yl)-2-oxo-1,2-dihydro-1,5-naphthyridine-3-carbonitrile] were 72 µM, 0.88 µM, 45 µM, > 240 µM and 81 µM.
